# Patent EP4656642A1, “ESTROGEN RECEPTOR PROTEOLYSIS TARGETING CHIMERA COMPOUND AND USE THEREOF” (GAN & LEE PHARM CO., LTD, priority 2023, dated 2024)
# Key:
# Format in all cases: cell-based
# MCF-7 cells = experiment: Inhibition of cell proliferation of MCF-7 cells (CCK-8, 9 days); settings: treated for 9 days, CCK-8 kit (Table 6)
# Excerpt: Test Example 4 Inhibitory effect of the PROTAC compounds disclosed in the present disclosure on cell proliferation of MCF-7 cells
# The complete medium required for MCF-7 cells (source ATCC) was DMEM (gibco, Product number :11995-065) basal medium containing 10% fetal bovine serum. MCF-7 cells were inoculated in 96-well plates at a density of 800 cells/well, and different concentrations of the PROTAC compounds 1-55 provided in the embodiments of the present disclosure and a positive control sample ARV-471 (source: Innochem) were prepared to treat cells, and cells were treated at 37°C in a cell culture incubator with 5% CO2 for 9 days. Cell viability was detected using a CCK -8 kit (Beyotime , Product number: C0040) according to the manufacturer's instruction. […] Table 5 IC50 values for inhibition of the proliferation of MCF-7 cells by the PROTAC compounds of the present disclosure and positive control sample
# ERα [1] = target: T1, ERα (Homo sapiens, UniProt P03372); experiment: Degradation of ERα in T-47D cells (immunoblotting, 4 h); parameters: host or cells: T-47D
# T1 sequence (P03372 1-595): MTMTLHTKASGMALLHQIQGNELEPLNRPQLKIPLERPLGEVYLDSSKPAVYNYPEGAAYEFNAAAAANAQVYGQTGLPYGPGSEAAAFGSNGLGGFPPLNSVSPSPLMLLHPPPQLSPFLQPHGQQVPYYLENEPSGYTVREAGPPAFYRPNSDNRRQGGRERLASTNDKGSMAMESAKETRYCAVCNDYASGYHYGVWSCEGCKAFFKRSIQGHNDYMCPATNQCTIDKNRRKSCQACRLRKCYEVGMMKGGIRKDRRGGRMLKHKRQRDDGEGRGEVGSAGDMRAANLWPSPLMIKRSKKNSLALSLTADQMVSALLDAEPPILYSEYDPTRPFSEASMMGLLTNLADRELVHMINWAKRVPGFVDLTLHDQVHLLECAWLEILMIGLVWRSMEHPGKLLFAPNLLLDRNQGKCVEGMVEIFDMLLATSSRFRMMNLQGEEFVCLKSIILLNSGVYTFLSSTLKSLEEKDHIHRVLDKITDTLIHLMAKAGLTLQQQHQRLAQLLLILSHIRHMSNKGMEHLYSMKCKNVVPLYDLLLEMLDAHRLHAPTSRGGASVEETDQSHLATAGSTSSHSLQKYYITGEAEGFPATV
# Protocol: (§1) T-47D cells were inoculated into 6-well plates at a density of 3×10^5 cells/well and cultured at 37°C, 5% CO2 for 24 h. After the cells were attached to the wall, 1µL of the compound solution in dimethyl sulfoxide (final concentration 0.15-1000 nM) was added and continued to be cultured in the incubator with 5% CO2 at 37°C for 4 h. After 4 h, the culture medium was discarded, and each well was washed once with pre-cooled 1×DPBS, and the cells were lysed with a mixture of 50 µL of RIPA lysis buffer (P0013B, Beyotime) and 1× protease inhibitor (P1005, Beyotime), and then centrifuged at 14,000 g for 30 min at 4°C after resting on ice for 20 min, and the supernatant was carefully collected to detect the protein level of ERα by protein immunoblotting (Immunoblotting).
# ERα [2] = target: T1, ERα; experiment: Degradation of ERα in MCF-7 cells (immunoblotting, 4 h)
# Protocol: as §1, with “MCF-7” for “T-47D”, “24h.” for “24 h.”, “0.15-1000nM)” for “0.15-1000 nM)”, “in” for “in the”, “incubator at 37°C” for “incubator”, “CO2” for “CO2 at 37°C”
# Protein immunoblotting: The total protein concentration in the collected cell lysate supernatant was determined by BCA Protein Concentration Assay Kit (Enhanced) (P0009, Beyotime). According to the total protein concentration detected by BCA, the protein was adjusted to 1 µg/µL with RIPA lysis buffer and 5× SDS-PAGE protein loading buffer (MB01015, Genscript), and the protein was denatured by water bath at 95°C for 5 min, and then centrifuged after denaturation to enrich the condensate on the wall of the centrifuge tubes as a loading sample. […] At the end of electrophoresis, the proteins in the SDS-PAGE gels were transferred to a PVDF membrane at a constant voltage of 100 V for 60 min. After that, the PVDF membrane corresponding to ERα protein and internal reference protein was cut out and incubated in 1×QµickBlock blocking solution (P0252, Beyotime) for 30 min at room temperature on a shaker. […] Protein profiles were analyzed by Image Studio Lite analysis software for grayscale values. Grayscale correction values were calculated for each sample using the Formula: corrected grayscale value = grayscale value of the target protein /corresponding grayscale value of the internal reference. The degradation rate for the compounds was then calculated by comparing the corrected grayscale values of the compound group to the control group. Table 7 Degradation rate (%) of ERα by the PROTAC compounds of the present disclosure and positive control sample in MCF-7 cells
Structure (SMILES),IC50 (MCF-7 cells) [µM],Degradation rate (%) of ERα in T-47D cells (ERα [1]; 1nM compound) [%],Degradation rate (%) of ERα in T-47D cells (ERα [1]; 10nM compound) [%],Degradation rate (%) of ERα in MCF-7 cells (ERα [2]; 1nM compound) [%],Degradation rate (%) of ERα in MCF-7 cells (ERα [2]; 10nM compound) [%],"IC50 (MCF-7 cells; Homo sapiens, MCF7, 216 h) [µM]"
O=C1CCC(N2Cc3c(ccc4c3OCC43CCN(C4CN(C5CCN(c6ccc([C@@H]7c8ccc(O)cc8CC[C@@H]7c7ccccc7)cc6)CC5)C4)CC3)C2=O)C(=O)N1 (some centres unmarked) [A58],0.0128,35,71,42,69,–
CN(C(=O)CN1CCC2(CC1)COc1c2ccc2c1C(=O)N(C1CCC(=O)NC1=O)C2=O)C1CCC2(CC1)CN(c1ccc([C@@H]3c4ccc(O)cc4CC[C@@H]3c3ccccc3)cc1)C2 (some centres unmarked) [K44],0.936,36,66,1,56,–
O=C1CCC(N2Cc3cc4c(cc3C2=O)CCC2(CN(CC3CCC5(CC3)CCN(c3ccc([C@@H]6c7ccc(O)cc7CC[C@@H]6c6ccccc6)cc3)CC5)C2)O4)C(=O)N1 (some centres unmarked) [A38],0.24,–,–,-1,-24,–
C[C@]12CC[C@@H]3c4ccc(O)cc4CC[C@H]3[C@@H]1CC[C@@H]2O [E2],–,–,–,–,–,0.0348
O=C1CCC(N2Cc3cc4c(cc3C2=O)CCC2(CN(C3CN(C5CCN(c6ccc([C@@H]7c8ccc(O)cc8CC[C@@H]7c7ccccc7)cc6)CC5)C3)C2)O4)C(=O)N1 (some centres unmarked) [A57],2.79,34,43,–,–,–
O=C1CCC(N2Cc3cc4c(cc3C2=O)OC2(CC4)CN(C3CN(C4CCN(c5ccc([C@@H]6c7ccc(O)cc7CC[C@@H]6c6ccccc6)cc5)CC4)C3)C2)C(=O)N1 (some centres unmarked) [A56],2.79,38,38,–,–,–
O=C1CCC(N2C(=O)c3cc4c(cc3C2=O)OC2(CC4)CN(CC3CCN(c4ccc([C@@H]5c6ccc(O)cc6CC[C@@H]5c5ccccc5)cc4)CC3)C2)C(=O)N1 (some centres unmarked) [H1],–,-6,-15,-13,-16,–

# Now from value to compound:
IC50 (MCF-7 cells) [µM],Degradation rate (%) of ERα in T-47D cells (ERα [1]; 1nM compound) [%],Degradation rate (%) of ERα in T-47D cells (ERα [1]; 10nM compound) [%],Degradation rate (%) of ERα in MCF-7 cells (ERα [2]; 1nM compound) [%],Degradation rate (%) of ERα in MCF-7 cells (ERα [2]; 10nM compound) [%],"IC50 (MCF-7 cells; Homo sapiens, MCF7, 216 h) [µM]",Structure (SMILES)
0.039,40,62,23,46,–,O=C1CCC(N2Cc3c(ccc4c3OCC43CCN(C(=O)C4CCC5(CC4)CN(c4ccc([C@@H]6c7ccc(O)cc7CC[C@@H]6c6ccccc6)cc4)C5)CC3)C2=O)C(=O)N1 (some centres unmarked) [A83]
4.03,63,76,37,40,–,O=C1CCC(N2Cc3c(ccc4c3OCC43CCN(C(=O)[C@H]4C[C@@H](OC5CCN(c6ccc([C@@H]7c8ccc(O)cc8CC[C@@H]7c7ccccc7)cc6)CC5)C4)CC3)C2=O)C(=O)N1 (some centres unmarked) [H61]
52.1,54,78,29,61,–,O=C1CCC(N2Cc3cc4c(cc3C2=O)OC2(CC4)CN(C(=O)CN3CCC4(CCN(c5ccc([C@@H]6c7ccc(O)cc7CC[C@@H]6c6ccccc6)cc5)CC4)C3)C2)C(=O)N1 (some centres unmarked) [A77]
4.37,52,82,40,75,–,C[C@@H]1Cc2c(ccc3[nH]ncc23)C(c2ccc(N3CCC4(CCN(CC(=O)N5CCC6(CC5)COc5c6ccc6c5CN(C5CCC(=O)NC5=O)C6=O)C4)CC3)cn2)N1CC(F)(F)F (some centres unmarked) [J11]
0.0148,–,–,–,–,–,CC1(C(=O)N2CCC(N3CCC4(CC3)COc3c4ccc4c3CN(C3CCC(=O)NC3=O)C4=O)CC2)CCN(c2ccc([C@@H]3c4ccc(O)cc4CC[C@@H]3c3ccccc3)cc2)CC1 (some centres unmarked) [N 1]
–,73,87,28,62,–,O=C1CCC(N2Cc3c(ccc4c3OCC43CCN(CC(=O)N4CCC5(CC4)CCN(c4ccc([C@@H]6c7ccc(O)cc7CC[C@@H]6c6ccccc6)cc4)CC5)CC3)C2=O)C(=O)N1 (some centres unmarked) [A74]
32.4,–,–,37,66,–,O=C1CCC(N2Cc3c(ccc4c3OCC43CCN(S(=O)(=O)[C@H]4CC[C@H](C(=O)N5CCN(c6ccc([C@@H]7c8ccc(O)cc8CC[C@@H]7c7ccccc7)cc6)CC5)CC4)CC3)C2=O)C(=O)N1 (some centres unmarked) [G26]
–,24,23,-2,10,–,O=C1CCC(N2C(=O)c3ccc4c(c3C2=O)OCC42CCN(C3CC4(CCN(c5ccc([C@@H]6c7ccc(O)cc7CC[C@@H]6c6ccccc6)cc5)CC4)C3)CC2)C(=O)N1 (some centres unmarked) [L17]
–,55,81,39,61,–,CN(C[C@H]1CC[C@H](C(=O)N2CCC3(CC2)COc2c3ccc3c2CN(C2CCC(=O)NC2=O)C3=O)CC1)[C@@H]1CCN(c2ccc([C@@H]3c4ccc(O)cc4CC[C@@H]3c3ccccc3)cc2)C[C@@H]1F (some centres unmarked) [D12]
–,47,81,–,–,–,O=C1CCC(N2Cc3c(ccc4c3OCC43CCN(C[C@H]4CC[C@H](OC5CCN(c6ccc([C@@H]7c8ccc(O)cc8CC[C@@H]7c7ccccc7)cc6)CC5)CC4)CC3)C2=O)C(=O)N1 (some centres unmarked) [G24]
